Data from patent US10221179B2, “Substituted pyrazoloquinazolinones and pyrroloquinazolinones as allosteric modulators of group II metabotropic glutamate receptors” (DOMAIN THERAPEUTICS, priority 2014, dated 2019).

SMILES	melting point
COCCOc1cc(-c2cc3n(C)c(=O)c4ccccc4n3n2)ccn1 [Example 20, 2-[2-(2-Methoxy-ethoxy)-pyridin-4-yl]-4-methyl-4H-pyrazolo[1,5-a]quinazolin-5-one]	169 to 173 °C
Cl.Cn1c(=O)c2ccccc2n2nc(-c3ccnc(C4CCCC4)c3)cc12	> 250 °C
Cc1cnccc1-c1cc2n(C)c(=O)c3ccccc3n2n1 [Example 109, 4-Methyl-2-(3-methyl-pyridin-4-yl)-4H-pyrazolo[1,5-a]quinazolin-5-one]	145 to 150 °C
Cn1c(=O)c2ccc(C3CCCC3)cc2n2nc(-c3ccnc(C(F)(F)F)c3)cc12 [Example 74, 8-Cyclopentyl-4-methyl-2-(2-trifluoromethyl-pyridin-4-yl)-4H-pyrazolo[1,5-a]quinazolin-5-one]	246 to 250 °C
Cl.Cn1c(=O)c2ccccc2n2nc(-c3ccnc(C4CCCCC4)c3)cc12	> 250 °C
Cn1c(=O)c2ccc(N3CCOCC3)cc2n2nc(-c3ccnc(C(F)(F)F)c3)cc12 [Example 59, 4-Methyl-8-morpholin-4-yl-2-(2-trifluoromethyl-pyridin-4-yl)-4H-pyrazolo[1,5-a]quinazolin-5-one]	> 250 °C
Cn1c(=O)c2ccc(OCCCO)cc2n2nc(-c3ccnc(C(F)(F)F)c3)cc12 [Example 111, 8-(3-Hydroxy-propoxy)-4-methyl-2-(2-trifluoromethyl-pyridin-4-yl)-4H-pyrazolo[1,5-a]quinazolin-5-one]	223 to 226 °C
Cn1c(=O)c2ccccc2n2nc(-c3ccnc(OC4COC4)c3)cc12 [Example 18, 4-Methyl-2-[2-(oxetan-3-yloxy)-pyridin-4-yl]-4H-pyrazolo[1,5-a]quinazolin-5-one]	219 to 223 °C

Results, then the molecule that gave them:

melting point	SMILES
> 250 °C	CN1CCN(c2ccc3c(=O)n(C)c4cc(-c5ccnc(C(F)(F)F)c5)nn4c3c2)CC1.Cl
> 250 °C	Cl.Cn1c(=O)c2ccc(N3CCNCC3)cc2n2nc(-c3ccnc(C(F)(F)F)c3)cc12
> 250 °C	COc1ccc2c(=O)n(C)c3cc(-c4ccnc(C(F)(F)F)c4)nn3c2c1 [Example 54, 8-Methoxy-4-methyl-2-(2-trifluoromethyl-pyridin-4-yl)-4H-pyrazolo[1,5-a]quinazolin-5-one]
205 to 210 °C	Cn1c(=O)c2ccc(N3CCC(CO)CC3)cc2n2nc(-c3ccnc(C(F)(F)F)c3)cc12 [Example 67, 8-(4-Hydroxymethyl-piperidin-1-yl)-4-methyl-2-(2-trifluoromethyl-pyridin-4-yl)-4H-pyrazolo[1,5-a]quinazoin-5-one]
223 to 230 °C	O=c1c2ccccc2n2nc(-c3ccnc(C(F)(F)F)c3)cc2n1CC(F)F [Example 29, 4-(2,2-Difluoro-ethyl)-2-(2-trifluoromethyl-pyridin-4-yl)-4H-pyrazolo[1,5-a]quinazolin-5-one]
220 to 225 °C	Cn1c(=O)c2cc(NC3CCC3)ccc2n2nc(-c3ccnc(C(F)(F)F)c3)cc12 [Example 46, 7-Cyclobutylamino-4-methyl-2-(2-trifluoromethyl-pyridin-4-yl)-4H-pyrazolo[1,5-a]quinazolin-5-one]
> 250 °C	Cn1c(=O)c2ccc(NCC(C)(C)O)cc2n2nc(-c3ccnc(C(F)(F)F)c3)cc12 [Example 126, 8-(2-Hydroxy-2-methyl-propylamino)-4-methyl-2-(2-trifluoromethyl-pyridin-4-yl)-4H-pyrazolo[1,5-a]quinazolin-5-one]
149 to 163 °C	Cn1c(=O)c2cc(N3CCOCC3)ccc2n2nc(-c3ccnc(C(F)(F)F)c3)cc12 [Example 47, 4-Methyl-7-morpholin-4-yl-2-(2-trifluoromethyl-pyridin-4-yl)-4H-pyrazolo[1,5-a]quinazolin-5-one]
235 to 245 °C	COc1ccc2c(c1)c(=O)n(C)c1cc(-c3ccnc(F)c3)nn21 [Example 101, 2-(2-Fluoro-pyridin-4-yl)-7-methoxy-4-methyl-4H-pyrazolo[1,5-a]quinazolin-5-one]
